In patent publication US20230002359A1, “PESTICIDALLY ACTIVE FUSED BICYCLIC HETEROAROMATIC COMPOUNDS” (priority 2019, published 2023):

Legend:
Type in all cases: in vivo
[1] = tested on: Diabrotica Balteata (Corn Root Worm); assay: Example B1: Diabrotica balteata (corn root worm), maize sprouts sprayed, L2 larvae; conditions: 96 h, application rate of 200 ppm, 4 days after infestation, L2 larvae, read-out: control in at least one of the two categories (mortality or growth inhibition)
Experimental: Maize sprouts placed onto an agar layer in 24-well microtiter plates were treated with aqueous test solutions prepared from 10′000 ppm DMSO stock solutions by spraying. After drying, the plates were infested with L2 larvae (6 to 10 per well). The samples were assessed for mortality and growth inhibition in comparison to untreated samples 4 days after infestation.

[2] = tested on: Chilo suppressalis (Striped Rice Stemborer); assay: Example B3: Chilo suppressalis (striped rice stemborer), artificial diet, L2 larvae; conditions: 144 h, application rate of 200 ppm, 6 days after infestation, L2 larvae, read-out: control in at least one of the three categories (mortality, anti-feedant effect, or growth inhibition)
Experimental: 24-well microtiter plates with artificial diet were treated with aqueous test solutions prepared from 10′000 ppm DMSO stock solutions by pipetting. After drying, the plates were infested with L2 larvae (6-8 per well). The samples were assessed for mortality, anti-feeding effect, and growth inhibition in comparison to untreated samples 6 days after infestation. Control of Chilo suppressalis by a test sample is given when at least one of the categories mortality, anti-feedant effect, and growth inhibition is higher than the untreated sample.

[3] = tested on: Spodoptera littoralis (Egyptian Cotton Leaf Worm); assay: Example B7: Spodoptera littoralis (Egyptian cotton leaf worm), cotton leaf discs sprayed, L1 larvae; conditions: foliar, 72 h, application rate of 200 ppm, 3 days after infestation, L1 larvae, read-out: control in at least one of the three categories (mortality, anti-feedant effect, or growth inhibition)
Experimental: Cotton leaf discs were placed onto agar in 24-well microtiter plates and sprayed with aqueous test solutions prepared from 10′000 ppm DMSO stock solutions. After drying the leaf discs were infested with five L1 larvae. The samples were assessed for mortality, anti-feeding effect, and growth inhibition in comparison to untreated samples 3 days after infestation. Control of Spodoptera littoralis by a test sample is given when at least one of the categories mortality, anti-feedant effect, and growth inhibition is higher than the untreated sample.

[4] = tested on: Plutella xylostella (Diamond Back Moth); assay: Example B4: Plutella xylostella (diamond back moth), artificial diet, eggs, 24-well; conditions: 192 h, application rate of 200 ppm, 8 days after infestation, eggs, read-out: control in at least one of the two categories (mortality or growth inhibition)
Experimental: 24-well microtiter plates with artificial diet were treated with aqueous test solutions prepared from 10′000 ppm DMSO stock solutions by pipetting. After drying, Plutella eggs were pipetted through a plastic stencil onto a gel blotting paper and the plate was closed with it. The samples were assessed for mortality and growth inhibition in comparison to untreated samples 8 days after infestation.

Structure (SMILES) | percent control (mortality or growth inhibition) at 200 ppm [1] [%] | percent control (mortality, anti-feedant effect or growth inhibition) at 200 ppm [2] [%] | percent control (mortality, anti-feedant effect or growth inhibition) at 200 ppm [3] [%] | percent control (mortality or growth inhibition) at 200 ppm [4] [%]
CC(Nc1nc(Cl)nc2c(C(F)(F)F)cc(C(F)(F)F)cc12)c1ncnn1-c1ncccn1 (stereo not shown) [P.25, 2-chloro-N-[1-(2-pyrimidin-2-yl-1,2,4-triazol-3-yl)ethyl]-6,8-bis(trifluoromethyl)quinazolin-4-amine] | ≥ 80 | ≥ 80 | ≥ 80 | –
CC(c1nccnc1-c1ccc(OC(F)F)cn1)N(C)c1ncnc2c(C(F)(F)F)cc(Cl)cc12 (stereo not shown) [P.123, 6-chloro-N-[1-[3-[5-(difluoromethoxy)-2-pyridyl]pyrazin-2-yl]ethyl]-N-methyl-8-(trifluoromethyl)quinazolin-4-amine] | ≥ 80 | ≥ 80 | ≥ 80 | ≥ 80
CC(c1nccnc1-c1ccc(OC(F)F)cn1)N(C)c1ncnc2c(C(F)(F)F)cc(Br)cc12 (stereo not shown) [P.273, 6-bromo-N-[1-[3-[5-(difluoromethoxy)-2-pyridyl]pyrazin-2-yl]ethyl]-N-methyl-8-(trifluoromethyl)quinazolin-4-amine] | ≥ 80 | ≥ 80 | ≥ 80 | ≥ 80
C[C@H](Nc1ccnc2c(Br)cc(C(F)(F)F)cc12)c1ncnn1-c1ncccn1 [P.209, 8-bromo-N-[(1S)-1-(2-pyrimidin-2-yl-1,2,4-triazol-3-yl)ethyl]-6-(trifluoromethyl)quinolin-4-amine] | ≥ 80 | ≥ 80 | ≥ 80 | ≥ 80
CC(Nc1ncnc2c(OC(F)F)cc(Br)cc12)c1ncnn1-c1ccc(C#N)cn1 (stereo not shown) [P.244, 6-[5-[1-[[6-bromo-8-(difluoromethoxy)quinazo-lin-4-yl]amino]ethyl]-1,2,4-triazol-1-yl]pyridine-3-carbonitrile] | ≥ 80 | ≥ 80 | ≥ 80 | ≥ 80
CC(Nc1ncnc2c(Cl)cc(C(F)(F)F)cc12)c1nccnc1-c1ccc(C#N)cn1 (stereo not shown) [P.121, 6-[3-[1-[[8-chloro-6-(trifluoromethyl)quinazolin-4-yl]amino]ethyl]pryazin-2-yl]pyridine-3-carbonitrile] | – | ≥ 80 | ≥ 80 | –
CC(Nc1ncnc2c(Br)cc(OC(F)(F)F)cc12)c1ncnn1-c1ccc(C#N)cn1 (stereo not shown) [P.246, 6-[5-[1-[[8-bromo-6-(trifluoromethoxy)quinazo-lin-4-yl]amino]ethyl]-1,2,4-triazol-1-yl]pyridine-3-carbonitrile] | – | ≥ 80 | ≥ 80 | ≥ 80
CC(Nc1ncnc2c(Br)cc(C(F)(F)F)cc12)c1ncnn1-c1ccc(C#N)cn1 (stereo not shown) [P.42, 6-[5-[1-[[8-bromo-6-(trifluoromethyl)quinazolin-4-yl]amino]ethyl]-1,2,4-triazol-1-yl]pyridine-3-carbonitrile] | – | ≥ 80 | ≥ 80 | ≥ 80
CC(Nc1ncnc2c(C(F)(F)F)cc(Br)cc12)c1ncnn1-c1ccc(OC(F)F)cn1 (stereo not shown) [P.195, 6-bromo-N-[1-[2-[5-(difluoromethoxy)-2-pyridyl]-1,2,4-triazol-3-yl]ethyl]-8-(trifluoromethyl)quinazolin-4-amine] | – | ≥ 80 | ≥ 80 | –
CC(c1nccnc1-c1ccc(C#N)cn1)N(C)c1ncnc2c(C(F)(F)F)cc(Br)cc12 (stereo not shown) [P.125, 6-[3-[1-[[6-bromo-8-(trifluoromethyl)quinazolin-4-yl]-methyl-amino]ethyl]pyrazin-2-yl]pyridine-3-carbonitrile] | – | – | ≥ 80 | ≥ 80
C[C@H](c1ncnn1-c1ccc(C#N)cn1)N(C)c1ncnc2c(C(F)(F)F)cc(C(F)(F)F)cc12 [P.53, 6-[5-[(1R)-1-[[6,8-bis(trifluoromethyl)quina-zolin-4-yl]-methyl-amino]ethyl]-1,2,4-triazol-1-yl]pyridine-3-carbonitrile] | – | ≥ 80 | ≥ 80 | ≥ 80
CC(c1nccnc1-n1nccn1)N(C)c1ncnc2c(Br)cc(OC(F)(F)F)cc12 (stereo not shown) [P.179, 8-bromo-N-methyl-N-[1-[3-(triazol-2-yl)pyrazin-2-yl]ethyl]-6-(trifluoromethoxy)quinazo-lin-4-amine] | ≥ 80 | ≥ 80 | – | ≥ 80
CC(c1nccnc1-c1ccc(C#N)cn1)N(C)c1ncnc2c(C(F)(F)F)cc(Cl)cc12 (stereo not shown) [P.275, 6-[3-[1-[[6-chloro-8-(trifluoromethyl)quinazolin-4-yl]-methyl-amino]ethyl]pyrazin-2-yl]pyridine-3-carbonitrile] | – | ≥ 80 | ≥ 80 | –
CC(Nc1ncnc2c(C(F)(F)F)cc(Cl)cc12)c1ncnn1-c1ccc(C#N)cn1 (stereo not shown) [P.41, 6-[5-[1-[[6-chloro-8-(trifluoromethyl)quinazolin-4-yl]amino]ethyl]-1,2,4-triazol-1-yl]pyridine-3-carbonitrile] | – | ≥ 80 | ≥ 80 | ≥ 80
CC(Nc1ncnc2c(Cl)c(F)c(Cl)cc12)c1ncnn1-c1ncccn1 (stereo not shown) [P.166, 6,8-dichloro-7-fluoro-N-[1-(2-pyrimidin-2-yl-1,2,4-triazol-3-yl)ethyl]quinazolin-4-amine] | ≥ 80 | – | ≥ 80 | –
CC(c1nccnc1-n1nccn1)N(CC1CC1)c1ncnc2c(C(F)(F)F)cc(Cl)cc12 (stereo not shown) [P.77, 6-chloro-N-(cyclopropylmethyl)-N-[1-[3-(triazol-2-yl)pyrazin-2-yl]ethyl]-8-(trifluoromethyl)quinazolin-4-amine] | ≥ 80 | ≥ 80 | – | ≥ 80
CC(Nc1ncnc2c(Cl)cc(C(F)(F)F)cc12)c1ncnn1-c1ccc(C#N)cn1 (stereo not shown) [P.45, 6-[5-[1-[[8-chloro-6-(trifluoromethyl)quinazolin-4-yl]amino]ethyl]-1,2,4-triazol-1-yl]pyridine-3-carbonitrile] | – | ≥ 80 | ≥ 80 | ≥ 80
CC(c1nccnc1-c1ncccn1)N(CC1CC1)c1ncnc2c(Cl)cc(C(F)(F)F)cc12 (stereo not shown) [P.81, 8-chloro-N-(cyclopropylmethyl)-N-[1-(3-pyrimidin-2-ylpyrazin-2-yl)ethyl]-6-(trifluoromethyl)quinazolin-4-amine] | ≥ 80 | ≥ 80 | – | ≥ 80
C[C@@H](c1ncnn1-c1ccc(C#N)cn1)N(C)c1ncnc2c(C(F)(F)F)cc(Br)cc12 [P.204, 6-[5-[(1S)-1-[[6-bromo-8-(trifluoromethyl)quinazolin-4-yl]-methyl-amino]ethyl]-1,2,4-triazol-1-yl]pyridine-3-carbonitrile] | – | – | ≥ 80 | ≥ 80
CC(Nc1ncnc2c(C(F)(F)F)cc(Cl)cc12)c1ncnn1-c1ccc(F)cn1 (stereo not shown) [P.234, 6-chloro-N-[1-[2-(5-fluroo-2-pyridyl)-1,2,4-triazol-3-yl]ethyl]-8-(trifluoromethyl)quinazolin-4-amine] | ≥ 80 | – | ≥ 80 | ≥ 80
